In the supplement of paper PMC10627819:

Key:
S. aureus Newman [1] = test: fitness (endpoint OD595 vs no drug) (fraction); higher = more growth
Summary of the method: (§1)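 Background-subtracted growth curves were the basis for fitness, taken as the optical density at entry into stationary phase over the robust mean of no-drug control wells. A cap of 1 was applied. The curves came from OD595 readings every 30 min for 14 h at 37 °C, in 384-well plates seeded at OD595 0.01 with 30 µl, or 55 µl for S. pneumoniae.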

S. aureus DSM 20231 [2] = test: as above
Summary of the method: as §1

B. subtilis 168 = test: Bliss interaction score (quartile over a dose matrix) (fitness difference); higher = more antagonism (negative = synergy)
Summary of the method: (§2)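 Fitness was defined as normalised growth: OD595 at the start of stationary phase divided by the plate's robust no-drug mean and capped at 1. Single-drug fitness was inferred from combination measurements. The Bliss score is observed fitness minus the product of the single-drug values, summarised by quartiles across technical, biological and donor/recipient replicates.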

S. aureus Newman [3] = test: as above
Summary of the method: as §2

S. aureus DSM 20231 [4] = test: as above
Summary of the method: as §2

S. pneumoniae D39V = test: as above
Summary of the method: as §2
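Wherever Bliss interaction score (quartile over a dose matrix) is given: first quartile when negative (synergy) and third quartile when positive (antagonism).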

O=C(N[C@H](CO)[C@H](O)c1ccc([N+](=O)[O-])cc1)C(Cl)Cl [Chloramphenicol] + Cc1cc(NS(=O)(=O)c2ccc(N)cc2)no1 [Sulfamethoxazol]
fitness
Details | first compound 0.75 µg/mL | first compound 1.5 µg/mL | first compound 3 µg/mL
S. aureus DSM 20231 [2], partner 1 µg/mL | 0.614 | 0.541 | 0.115
S. aureus DSM 20231 [2], partner 2 µg/mL | 0.652 | 0.526 | 0.102
S. aureus DSM 20231 [2], partner 4 µg/mL | 0.709 | 0.49 | –
S. aureus Newman [1], partner 1 µg/mL | 0.837 | 0.583 | 0.199
S. aureus Newman [1], partner 2 µg/mL | 0.899 | 0.652 | 0.172
S. aureus Newman [1], partner 4 µg/mL | 0.909 | 0.647 | 0.179

S. aureus Newman [1], partner 8 µg/mL, one replicate
Details | fitness
first compound 0.75 µg/mL | 0.889
first compound 1.5 µg/mL | 0.694
first compound 3 µg/mL | 0.35

Details | Bliss interaction score
B. subtilis 168 | 0.0483
S. aureus DSM 20231 [4] | -0.0341
S. aureus Newman [3] | 0.0702
S. pneumoniae D39V | -0.0682

O=C(N[C@H](CO)[C@H](O)c1ccc([N+](=O)[O-])cc1)C(Cl)Cl [Chloramphenicol] + CN[C@@H]1[C@H](O)[C@H](NC)[C@H]2O[C@@]3(O)C(=O)C[C@@H](C)O[C@H]3O[C@@H]2[C@H]1O [Spectinomycin]
fitness
Details | first compound 0.75 µg/mL | first compound 1.5 µg/mL | first compound 3 µg/mL
S. aureus DSM 20231 [2], partner 4 µg/mL | 0.556 | 0.539 | 0.12
S. aureus DSM 20231 [2], partner 8 µg/mL | 0.665 | 0.511 | 0.117
S. aureus DSM 20231 [2], partner 16 µg/mL | 0.657 | 0.376 | 0.15
S. aureus Newman [1], partner 4 µg/mL | 0.725 | 0.441 | 0.207
S. aureus Newman [1], partner 8 µg/mL | 0.722 | 0.42 | 0.172
S. aureus Newman [1], partner 16 µg/mL | – | – | 0.0732

fitness, one replicate
Details | first compound 0.75 µg/mL | first compound 1.5 µg/mL | first compound 3 µg/mL
S. aureus DSM 20231 [2], partner 32 µg/mL | 0.493 | 0.259 | 0.0743
S. aureus DSM 20231 [2], partner 64 µg/mL | 0.0559 | 0.0436 | 0.0235
S. aureus Newman [1], partner 32 µg/mL | 0.155 | 0.0442 | 0.0229
S. aureus Newman [1], partner 64 µg/mL | 0.0289 | 0.0929 | 0.0827

Details | Bliss interaction score
B. subtilis 168 | -0.0556
S. aureus DSM 20231 [4] | -0.0533
S. aureus Newman [3] | -0.107
S. pneumoniae D39V | -0.0595

CCC[C@@H]1C[C@@H](C(=O)N[C@@H]([C@H]2O[C@H](SC)[C@H](O)[C@@H](O)[C@H]2O)[C@H](C)Cl)N(C)C1 [Clindamycin] + CCCCCCCCCC(=O)N[C@@H]1[C@H]([C@@H]([C@H](O[C@H]1OC2=C3C=C4C=C2OC5=C(C=C(C=C5)[C@H]([C@H]6C(=O)N[C@@H](C7=C(C(=CC(=C7)O)OC8[C@H]([C@H]([C@@H]([C@H](O8)CO)O)O)O)C9=C(C=CC(=C9)[C@H](C(=O)N6)NC(=O)[C@@H]4NC(=O)[C@@H]1C2=CC(=CC(=C2)OC2=C(C=CC(=C2)[C@H](C(=O)N[C@H](CC2=CC(=C(O3)C=C2)Cl)C(=O)N1)N)O)O)O)C(=O)O)O[C@H]1[C@@H]([C@H]([C@@H]([C@H](O1)CO)O)O)NC(=O)C)Cl)CO)O)O [Teicoplanin]
fitness, main component drawn
Details | partner 0.1562 µg/mL | partner 0.3125 µg/mL | partner 0.625 µg/mL
S. aureus DSM 20231 [2], first compound 0.125 µg/mL | 0.0489 | 0.0449 | 0.0526
S. aureus Newman [1], first compound 0.0312 µg/mL | 0.679 | 0.864 | 0.854
S. aureus Newman [1], first compound 0.0625 µg/mL | 0.448 | 0.431 | 0.483
S. aureus Newman [1], first compound 0.125 µg/mL | 0.0629 | 0.0636 | 0.0614

fitness, S. aureus Newman [1], one replicate, main component drawn
Details | first compound 0.0312 µg/mL | first compound 0.0625 µg/mL | first compound 0.125 µg/mL
partner 0.62 µg/mL | 0.86 | 0.74 | 0.358
partner 1.24 µg/mL | 0.938 | 0.839 | 0.307
partner 2.48 µg/mL | 0.755 | 0.726 | 0.154

main component drawn
Details | Bliss interaction score
B. subtilis 168 | -0.117
S. aureus DSM 20231 [4] | 0.0389
S. aureus Newman [3] | 0.137
S. pneumoniae D39V | -0.0604

O=C(N[C@H](CO)[C@H](O)c1ccc([N+](=O)[O-])cc1)C(Cl)Cl [Chloramphenicol] + CCN(CC)CCOC(=O)c1ccc(N)cc1 [Procaine]
fitness
Details | partner 85.5 µg/mL | partner 171 µg/mL | partner 342 µg/mL
S. aureus DSM 20231 [2], first compound 0.75 µg/mL | 0.675 | – | 0.753
S. aureus DSM 20231 [2], first compound 1.5 µg/mL | 0.516 | 0.57 | 0.538
S. aureus DSM 20231 [2], first compound 3 µg/mL | 0.0915 | 0.0967 | 0.0943
S. aureus Newman [1], first compound 0.75 µg/mL | 0.783 | 0.787 | 0.793
S. aureus Newman [1], first compound 1.5 µg/mL | 0.531 | 0.559 | 0.577

Details | Bliss interaction score
B. subtilis 168 | -0.0897
S. aureus DSM 20231 [4] | -0.0791
S. aureus Newman [3] | 0.0594
S. pneumoniae D39V | -0.0498

O=C(N[C@H](CO)[C@H](O)c1ccc([N+](=O)[O-])cc1)C(Cl)Cl [Chloramphenicol] + C[C@@H]1O[C@@H]1P(=O)(O)O [Fosfomycin]
fitness
Details | first compound 0.75 µg/mL | first compound 1.5 µg/mL | first compound 3 µg/mL
S. aureus DSM 20231 [2], partner 0.781 µg/mL | 0.633 | 0.473 | 0.116
S. aureus DSM 20231 [2], partner 1.562 µg/mL | 0.558 | 0.402 | 0.0874
S. aureus DSM 20231 [2], partner 3.124 µg/mL | 0.436 | 0.265 | 0.0652
S. aureus Newman [1], partner 0.781 µg/mL | 0.491 | 0.394 | 0.117
S. aureus Newman [1], partner 1.562 µg/mL | 0.452 | 0.272 | 0.0456
S. aureus Newman [1], partner 3.124 µg/mL | 0.117 | 0.0322 | 0.0343

Details | Bliss interaction score
B. subtilis 168 | 0.129
S. aureus DSM 20231 [4] | 0.0517
S. aureus Newman [3] | -0.108
S. pneumoniae D39V | 0.0635

O=C(N[C@H](CO)[C@H](O)c1ccc([N+](=O)[O-])cc1)C(Cl)Cl [Chloramphenicol] + COc1ccc(C[C@H](N)C(=O)N[C@H]2[C@@H](O)[C@H](n3cnc4c(N(C)C)ncnc43)O[C@@H]2CO)cc1 [Puromycin]
fitness
Details | first compound 0.75 µg/mL | first compound 1.5 µg/mL | first compound 3 µg/mL
S. aureus DSM 20231 [2], partner 0.39 µg/mL | 0.764 | – | 0.11
S. aureus DSM 20231 [2], partner 0.78 µg/mL | 0.759 | 0.585 | 0.0684
S. aureus DSM 20231 [2], partner 1.56 µg/mL | 0.782 | 0.455 | –
S. aureus Newman [1], partner 0.39 µg/mL | 0.764 | 0.502 | 0.145
S. aureus Newman [1], partner 0.78 µg/mL | 0.777 | 0.501 | 0.121
S. aureus Newman [1], partner 1.56 µg/mL | 0.807 | 0.501 | –

fitness, S. aureus DSM 20231 [2], one replicate
Details | first compound 0.75 µg/mL | first compound 1.5 µg/mL | first compound 3 µg/mL
partner 3.12 µg/mL | 0.771 | 0.231 | 0.0598
partner 6.24 µg/mL | 0.387 | – | 0.0594

Details | Bliss interaction score
B. subtilis 168 | -0.0629
S. aureus DSM 20231 [4] | 0.0724
S. aureus Newman [3] | -0.111
S. pneumoniae D39V | -0.0967
